Measurements as given in US20200207835A1, “SRCP1-BASED THERAPY FOR DISEASES ASSOCIATED WITH PROTEIN AGGREGATION” (THE MEDICAL COLLEGE OF WISCONSIN, INC., priority 2017, published 2020).
Positions count from the first letter of the chain named. In names and notes the source's numbering stands. Read-outs that look alike come from different tables or passages of the source. Values belong to the molecule of their own block, whether it stands above or below them. Residues, ends and D or L forms follow the SMILES beside them. No end group written: not given here. *: point of attachment. Cbz = O=C(OCc1ccccc1)*

Columns and labels:
^GFPHtt^ex1Q74 = assay: GFPHttex1Q74 aggregation in transfected HEK293 cells (fluorescent/confocal microscopy, western blot, filter trap assay); type: cell-based, human; settings: for ability of SRCP1 mutant to suppress GFPHttex1Q74 aggregation: HEK293, 48 hours post-transfection, western blot and fluorescent microscopy; for ability of SRCP1 point mutant to suppress GFPHttex1Q74 aggregation: HEK293, fluorescence microscopy
Description: Transfections were performed with Lipofectamine 2000 (Invitrogen by ThermoFisher Scientific) and adapted from the manufacturer's instructions. Briefly, cells were plated on either 12-well or 6-well plates and transfected at 50-70% confluency. For 12-well transfections, 0.833 μg of DNA per well was mixed with 50 μl of OptiMEM (Gibco by Life Technologies) media and incubated for 5 minutes at room temperature. Lipofectamine 2000 in a 2:1, μl of lipofectamine: μg DNA ratio was mixed with 50 μl of OptiMEM media and incubated for 5 minutes at room temperature. DNA and Lipofectamine were mixed and incubated for 15 minutes at room temperature. Fresh media was added to cells prior to the addition of DNA and lipofectamine. For 6-well transfections, the same protocol is followed except that 1.25 μg of DNA per well and 100 μl of OptiMEM for dilution was used. Media was changed 24 hours post-transfection and cells were harvested 48 hours post-transfection. Prior to harvesting, HEK293 cells were washed three times with ice-cold 1×PBS. Samples were then lysed with either 150 μl of ice-cold NETN (with protease inhibitor) or 1× Laemmli Buffer and sonicated twice for 5-8 seconds.
(§1) For proteasome inhibition, 30 hours post-transfection cells would be replenished with DMEM containing either DMSO or 10 μM MG132 (Sigma-Aldrich) for 18 hours. Prior to harvesting, HEK293 cells were washed three times with ice-cold 1×PBS and imaged by fluorescent microscopy with a 20× objective using the Evos FL Auto Imaging System. Cells were then lysed with either 150 μl of ice-cold NETN (with protease inhibitor) or 1× Laemmli Buffer and sonicated twice for 5-8 seconds.
as §1, with “autophagy” for “proteasome”, “24” for “30”, “and treated with” for “containing”, “5 mM 3-Methyladenine” for “10 μM MG132”, “an additional 24” for “18”
For HEK293s′, slides were prepared by placing coverslips in 6-well plates and incubating with poly-L-lysine hydrobromide (Sigma-Aldrich) for an hour at room temperature. Coverslips were rinsed with 1×PBS three times prior to plating HEK293 cells. HEK293 cells were then transfected and fixed by incubation in 4% paraformaldehyde for 20 minutes at room temperature. Coverslips were mounted with ProLong Gold Antifade reagent and imaged with a 20× objective using the Evos FL Auto Imaging System or with a 40× objective using the Leica TCS SP5 Confocal Microscope System. For confocal, Z-stack images were obtained at […] intervals at 1024×1024 pixel resolution and merged using Fiji.
(§2) Following sonication, lysates were subjected to BCA protein assay (ThermoFisher Scientific) and prepared for loading by the addition of 4× laemmli buffer and boiling for four minutes. Samples then loaded on SDS-polyacrylamide gels, ran at 175 V, and transferred onto an Immuno-blot PVDF membrane (Biorad) overnight at 30 V. Membranes were blocked in 5% milk in TBS with 0.1% Tween (TBST) and incubated in primary antibody overnight at 4° C. Following primary, membranes were washed for 10 minutes at room temperature three times with TBST and incubated in secondary for an hour at room temperature. Membranes were then washed for 10 minutes at room temperature three times with TBST and then incubated in buffer for enhanced chemiluminescence (50 mM Na2HPO4; 50 mM Na2CO3; 10 mM NaBO3.4H2O; 250 mM luminol; 90 mM coumaric acid).
For HEK293 lysates, BCA protein assay was used to determine protein concentration. […]

^GFPHtt^ex1Q103 = type: cell-based, Dictyostelium discoideum; settings: Dictyostelium
Description: (§3) For proteasome inhibition, 5×10^6 cells were incubated with either DMSO or 100 μM MG132 (Sigma-Aldrich) for 18 hours. Following treatment, cells were imaged and/or harvested by spinning at 500 g at room temperature for 5 minutes. Cell pellets were washed three times with 1×PBS and lysed with ice-cold NETN (with protease inhibitor). Lysates were then sonicated twice for 10-15 seconds. To verify inhibition, samples were run on SDS-PAGE and analyzed by western blot for ubiquitin.
For Hsp70 inhibition, 1×10^7 cells were incubated either with DMSO or 80 μM VER155008 (ApexBio) for 24 hours. Following treatments, cells were imaged and/or harvested by spinning at 500 g at room temperature for 5 minutes. Cell pellets were washed three times with 1×PBS and lysed with ice-cold NETN (with protease inhibitor). Lysates were then sonicated twice for 10-15 seconds. To verify inhibition, samples were run on SDS-PAGE and analyzed by western blot for ATG8.
For Dictyostelium cells, 1×10^7 cells were washed three times with ice-cold starvation buffer and then imaged with a 20× objective using the Evos FL Auto Imaging System.

ubiquitinated species = assay: Western blot for ubiquitin after proteasome inhibition in Dictyostelium; type: cell-based, Dictyostelium discoideum; settings: increasing concentrations of MG132, 18 hours
Description: as §3, with “Following” for “For proteasome inhibition, 5×10^6 cells were incubated with either DMSO or 100 μM MG132 (Sigma-Aldrich) for 18 hours. Following”
as §2

ATG8 [1] = settings: 150 mM NH4Cl, 8 hours
Description: For autophagy inhibition, 1×10^7 cells were incubated either with vehicle or 150 μM NH4Cl (Sigma-Aldrich) for 8 hours. Following treatments, cells were imaged by fluorescent microscopy and plated on coverslips at a density of 2×10^6 cells per ml and allowing cells to adhere. Cells were then washed three times with 1×PBS and fixed with 100% ice-cold methanol at −20° C. for 10 minutes. Methanol was aspirated and cells were washed twice with 1×PBT (0.1% Triton X, 0.5% BSA in 1×PBS), incubated in blocking buffer (1% Triton X, 2% BSA in 1×PBT) for 30 minutes at room temperature, and put in primary Rb anti ATG8a (courtesy of Jason King, University of Sheffield) (1:5000) overnight at 4° C. Following primary cells were washed three times with 1×PBT and incubated in secondary goat anti rabbit (Jackson ImmunoResearch Laboratories; 711-166-152) for 2 hours at room temperature. Following secondary, cells were washed an additional three times with 1×PBT and mounted on slides with ProLong Gold Antifade reagent (Invitrogen by ThermoFisher Scientific). Slides were imaged with a Nikon eclipse 90i confocal microscope.

ATG8 [2] = assay: Western blot for ATG8 after Hsp70 inhibition in Dictyostelium; type: cell-based, Dictyostelium discoideum; settings: 80 μM Ver155008, 24 hours
Description: as §2, with “For Hsp70 inhibition, 1×10^7 cells were incubated either with DMSO or 80 μM VER155008 (ApexBio) for 24 hours. Following treatments, cells were imaged and/or harvested by spinning at 500 g at room temperature for 5 minutes. Cell pellets were washed three times with 1×PBS and lysed with ice-cold NETN (with protease inhibitor). Lysates were then sonicated twice for 10-15 seconds. To verify inhibition, samples were run on SDS-PAGE and analyzed by western blot for ATG8. Following sonication,” for “Following sonication,”

Htt^Q46 = molecular target: T1, Htt^Q46 (Homo sapiens, UniProt P42858, INS38QQQQQQQQQQQQQQQQQQQQQQQQQ); assay: Thioflavin-T in vitro HttQ46 aggregation assay; type: biochemical; settings: 3:1 peptide to HttQ46
T1 construct: Huntingtin exon-1 with 46 glutamines (Htt^Q46) in pET-32 was obtained from Addgene; pET-32 fusion tag (N, cleaved yes); host or cells: E. coli BL21
T1 sequence (P42858 with tags, fused parts or gaps with the stated changes): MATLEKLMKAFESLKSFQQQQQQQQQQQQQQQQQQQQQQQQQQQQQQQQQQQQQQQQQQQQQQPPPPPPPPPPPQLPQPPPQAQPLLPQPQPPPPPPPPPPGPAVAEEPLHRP
Description: Huntingtin exon-1 with 46 glutamines (Htt^Q46) in pET-32 was obtained from Addgene. Htt^Q46 was grown in BL21 cells at 37° C. to an optical density of 0.6 and induced with IPTG at 1 mM overnight at 16° C. After induction cells were spun down at 7,000 rpm for 5 minutes and resuspended in resuspension buffer (15 mM Tris-HCl buffer, pH 8.0). For lysis, lysozyme was added and cells were incubated at 4° C. for 45 minutes. To obtain soluble fraction, lysates were spun down at 12,000 rpm for 10 minutes, after which supernatant was added to 3 ml of Ni-beads (GoldBio) per 100 ml of lysate and tumbled for 4 hours at 4° C. Beads were then washed three times with resuspension buffer and then washed three more times with wash buffer (50 mM Tris-HCl pH 8.0, 150 mM NaCl, 1 mM PMSF, 1 mM EDTA). Protein was then eluted off beads by tumbling overnight at 4° C. in 25 mL of wash buffer with 250 mM imidazole.
Aggregation assays were performed as previously described in Kakkar, V. et al. Briefly, 15 μM Htt^46Q was mixed with 90 μM SRCP1 peptide (GenScript) (1:6, 1:3, 1:1.5) and 10 μM Thioflavin-T (Sigma-Aldrich). All samples were prepared on ice in buffer containing 20 mM Tris-HCl pH 8.0, 50 mM NaCl, 2 mM CaCl2). […] Fluorescence was measured with the excitation at 440 nm and emission at 480 nm, every 5 minutes using a Tecan Plate reader.

[3] = Solubility of SRCP1 peptide in vitro; type: physicochemical; settings: data not shown
[4] = HEK293, 5 mM 3-MA for 24 hours, without SRCP1
[5] = HEK293, 10 μM MG132 for 18 hours, absence of RFPSRCP1

Molecule: Cn1cnc(N)c2ncnc1-2 [3-MA, 3-Methyladenine, reference compound]
- aggregated GFPHttex1Q74 (^GFPHtt^ex1Q74; [4]): significant increase in soluble and aggregated
- soluble GFPHttex1Q74 (^GFPHtt^ex1Q74; [4]): significant increase in soluble and aggregated

Molecule: CC(C)C[C@@H](C=O)NC(=O)[C@H](CC(C)C)NC(=O)[C@H](CC(C)C)NC(=O)OCc1ccccc1 [MG132, reference compound] (Cbz-Leu-Leu-Leu-aldehyde)
- accumulation of aggregated GFPHttex1Q103 (^GFPHtt^ex1Q103; 100 μM MG132, 18 hours): does not result in an accumulation of aggregated
- accumulation of ubiquitinated species (ubiquitinated species): leads to an accumulation of ubiquitinated species
- insoluble GFPHttex1Q74 (^GFPHtt^ex1Q74; [5]): increased in both the insoluble and soluble fraction
- soluble GFPHttex1Q74 (^GFPHtt^ex1Q74; [5]): increased in both the insoluble and soluble fraction

Molecule: Cl.N [NH4Cl]
- accumulation of aggregated GFPHttex1Q103 (^GFPHtt^ex1Q103; 150 mM NH4Cl, 8 hours): does not lead to accumulation of aggregated
- ATG8 puncta (ATG8 [1]): leads to an accumulation of large ATG8 puncta

Molecule: N#Cc1ccc(COC[C@H]2O[C@@H](n3c(NCc4ccc(Cl)c(Cl)c4)nc4c(N)ncnc43)[C@H](O)[C@@H]2O)cc1 [VER-155008]
- accumulation of aggregated GFPHttex1Q103 (^GFPHtt^ex1Q103; 80 μM VER-155008, 24 hours): does not lead to accumulation of aggregated
- ATG8 protein levels (ATG8 [2]): leads to an increase of ATG8 proteins levels

Molecule: LIWGVYGFIR [SEQ ID NO:5, peptide of SRCP1 amino acids 61-70]
- HttQ46 aggregation in vitro, individual domain peptides (Htt^Q46): sufficient to suppress Htt^Q46 aggregation in vitro

- solubility in vitro [3]: remained soluble in vitro
Molecule: LIWGVYGFIRGGVGLVKWRG [SEQ ID NO:9]

- HttQ46 aggregation in vitro, individual domain peptides (Htt^Q46): loss in activity
Molecule: VI-A: SRCP1 61-70 peptide with amino acids V65 and I69 mutated to alanine (LIWGAYGFAR)

B1: ^RFPSRCP1^71-80A: SRCP1 with amino acids 71-80 mutated to alanine (protein)
chain: MTILSTFTSFSNPPKLNKSSFSSSTGSSLSMGSNSFAWGGGWGGFGGPKGGSFNVDIAGNLIWGVYGFIRAAAAAAAAAALQKGCKQP
modifications: left off: large carriers
notes: SRCP1 with amino acids 71-80 mutated to alanine
- ability of SRCP1 mutant to suppress GFPHttex1Q74 aggregation (^GFPHtt^ex1Q74): retained full activity

B2: ^RFPSRCP1^61-70A: SRCP1 with amino acids 61-70 mutated to alanine (protein)
chain: MTILSTFTSFSNPPKLNKSSFSSSTGSSLSMGSNSFAWGGGWGGFGGPKGGSFNVDIAGNAAAAAAAAAAGGVGLVKWRGLQKGCKQP
modifications: left off: large carriers
notes: SRCP1 with amino acids 61-70 mutated to alanine
- ability of SRCP1 mutant to suppress GFPHttex1Q74 aggregation (^GFPHtt^ex1Q74): lost the ability to suppress

B3: ^RFPSRCP1^V65A: SRCP1 point mutant, V65 mutated to alanine (protein)
chain: B2 chain with A61L, A62I, A63W, A64G, A66Y, A67G, A68F, A69I, A70R
modifications: left off: large carriers
notes: SRCP1 point mutant, V65 mutated to alanine
- ability of SRCP1 point mutant to suppress GFPHttex1Q74 aggregation (^GFPHtt^ex1Q74): resulted in a decrease in SRCP1 function

B4: ^RFPSRCP1^I69A: SRCP1 point mutant, I69 mutated to alanine (protein)
chain: B2 chain with A61L, A62I, A63W, A64G, A65V, A66Y, A67G, A68F, A70R
modifications: left off: large carriers
notes: SRCP1 point mutant, I69 mutated to alanine
- ability of SRCP1 point mutant to suppress GFPHttex1Q74 aggregation (^GFPHtt^ex1Q74): resulted in a decrease in SRCP1 function

B5: ^RFPSRCP1^ST1: SRCP1 with all N-terminal serine and threonine residues mutated to alanine (protein)
chain: MAILAAFAAFANPPKLNKAAFAAAAGAALAMGANAFAWGGGWGGFGGPKGGSFNVDIAGNLIWGVYGFIRGGVGLVKWRGLQKGCKQP
modifications: left off: large carriers
notes: SRCP1 with all N-terminal serine and threonine residues mutated to alanine
- ability of SRCP1 mutant to suppress GFPHttex1Q74 aggregation (^GFPHtt^ex1Q74): did not disrupt SRCP1's ability to suppress polyQ aggregation
